Measured values reported in patent US20050159364A1, “Copper antagonist compounds” (priority 2003, published 2005).
“And” between values parts separate entries of the source, which are not always exact repeats. Equal entries are not always repeated. “Also recorded” adds a separate entry of the source. Structures can show the parent of a compound that is named as a salt. Where two headings read alike, the source gives them in different places. Marks after values point to notes of the source that are not given here.

Legend:
[1] = test system: STZ-treated and non-STZ-treated rats; settings: for Serum Cu: trientine i.v. 0.1-100 mg.kg^−1 hourly, terminal sample; for Serum Fe: trientine i.v.
Excerpt: All animals were fasted overnight prior to surgery but continued to have ad libitum access to deionized water. […] The femoral artery and vein were cannulated with a solid-state blood pressure transducer (Mikrotip™ 1.4F, Millar Instruments, Texas, USA) and a saline filled PE 50 catheter respectively. The ureters were exposed via a midline abdominal incision, cannulated using polyethylene catheters (external diameter 0.9 mm, internal diameter 0.5 mm) and the wound sutured closed. The trachea was cannulated and the animal ventilated at 70-80 breaths.min^−1 with air supplemented with O2 (Pressure Controlled Ventilator, Kent Scientific, Conn., USA). The respiratory rate and end-tidal pressure (10-15 cmH2O) were adjusted to maintain end-tidal CO2 at 35-40 mmHg (SC-300 CO2 Monitor, Pryon Corporation, Wisconsin, USA). Body temperature was maintained at 37° C. throughout surgery and the experiment by a heating pad. Estimated fluid loss was replaced with intravenous administration of 154 mmol.l^−1 NaCl solution at a rate of 5 ml.kg^−1.h^−1.
(§1) Following surgery and a 20 min stabilization period, the experimental protocol was started. […] Control animals received an equivalent volume of saline. Urine was collected in 15 min aliquots throughout the experiment in pre-weighed polyethylene epindorf tubes. At the end of the experiment a terminal blood sample was taken by cardiac puncture and the separated serum stored at −80° C. until future analysis. Hearts were removed through a rapid mid-sternal thoracotomy and processed as described below.
Urine and tissue analysis was carried out as follows. Instrumentation:A Perkin Elmer (PE) Model 3100 Atomic Absorption Spectrophotometer equipped with a PE HGA-600 Graphite Furnace and PE AS-60 Furnace Autosampler was used for Cu and Fe determninations in urine. Deuterium background correction was employed. A Cu or Fe hollow-cathode lamp (Perkin Elmer Corporation) was used and operated at either 10 W (Cu) or 15 W (Fe). The 324.8 nm atomic line was used for Cu and the 248.3 nm atomic line for Fe. The slit width for both Cu and Fe was 0.7 nm. Pyrolytically coated graphite tubes were used for all analyses. The injection volume was 20 μL. A typical graphite furnace temperature program is shown below:
Sample pretreatment was carried out as follows. Urine:Urine was collected in pre-weighed 1.5 ml micro test tubes (eppendorf). After reweighing, the urine specimens were centrifuged and the supernatant diluted 25:1 with 0.02 M 69% Aristar grade HNO3. The sample was stored at 4° C. prior to GF-AAS analysis. If it was necessary to store a sample for a period in excess of 2 weeks, it was frozen and kept at −20° C. Serum:Terminal blood samples were centrifuged and serum treated and stored as per urine until analysis. From the trace metal content of serum from the terminal blood sample and urine collected over the final hour of the experiment, renal clearance was calculated using the following equation: [formula]

[2] = test system: humans with T2DM or matched controls; settings: for Mean CU Losses, fecal, Post-Tment: n = 10, oral 2.4 g once daily
Method: Total metal balance studies were performed in a residential metabolic unit. Total fecal outputs were collected daily for 12 days, freeze dried, and analyzed by ICP-MS for content of Cu, Fe, Zn, Ca, Mg, Mn, Cr, […] and Se.

Tg2576 transgenic mice = settings: oral treatment, nine weeks for clioquinol; cited from earlier work
[3] = test system: STZ-treated and non-STZ-treated rats; settings: highest dose 100 mg/kg i.v., 2 min following administration
Method: as §1
Mean arterial pressure (MAP), heart rate (HR, derived from the MAP waveform) oxygen saturation (Nonin 8600V Pulse Oximeter, Nonin Medical Inc., Minnesota, USA) and core body temperature, were all continuously monitored throughout the experiment using a PowerLab/16s data acquisition module (AD Instruments, Australia).
Following surgery and a 20 min stabilization period, the experimental protocol was started. […] Urine was collected throughout the experiment in 15 min aliquots.

[4] = test system: STZ-treated and non-STZ-treated rats; assay: Left ventricular histology by LCM and TEM after oral trientine
humans with T2DM = assay: 6-month double-blind placebo-controlled oral trientine trial, LV mass by cardiac MRI
Excerpt: Subjects (30-70 y) who provided written informed consent were eligible for inclusion if they had:T2DM with HbA1c>7%; cardiac ejection fraction (echocardiography)≧45% with evidence of diastolic dysfunction but no regional wall-motion anomalies; no new medications for more than 6 months with no change of β-blocker dose; normal electrocardiogram (sinus rhythm, normal PR Interval, normal T wave and QRS configuration, and isoelectric ST segment); and greater than 90% compliance with single-blinded placebo therapy during a 2-w run-in period. Women were required to be post-menopausal, surgically sterile, or non-lactating and non-pregnant and using adequate contraception.
Before randomization, potentially eligible subjects entered a 4-w single blind run-in phase of two placebo-capsules twice-daily and underwent screening echocardiography, being excluded if regional wall motion abnormalities or impaired LV systolic function (ejection fraction <50%) were detected. In addition, LV diastolic filling was assessed using mitral inflow Doppler (with pre-load reduction) to ensure patients had abnormalities of diastolic filling; no patient with normal mitral filling proceeded to randomisation. […] The double-blind treatment was continued for 6 months in each subject.
At baseline and following 6 months' treatment, LV mass was determined using cardiac MRI, performed in the supine position with the same 1.5 T scanner (Siemens Vision) using a phased array surface coil. Prospectively gated cardiac cine images were acquired in 6 short axis and 3 long axis slices with the use of a segmented k-space pulse sequence (TR 8 ms; TE 5 ms; flip angle 10°; field of view 280-350 mm) with view sharing (11-19 frames.slice^−1). Each slice was obtained during a breath-hold of 15-19 heartbeats. The short axis slices spanned the left ventricle from apex to base with a slice thickness of 8 mm and inter-slice gap of 2-6 mm. The long axis slices were positioned at equal 60° intervals about the long axis of the LV. […] LV-mass and volume were calculated using guide point modeling, which produces precise and accurate estimations of mass and volume. Briefly, a three dimensional mathematical model of the LV was interactively fitted to the epicardial and endocardial boundaries of the LV wall in each slice of the study, simultaneously. Volume and mass were then calculated from the model by numerical integration (mass=wall volume×1.05 g.ml^−1). All measurements were performed by 1 measurer at the end of six months' data collection. Outcome analyses were conducted by intention-to-treat, using a maximum likelihood approach to impute missing at random data within a mixed model, and marginal least-squares adjusted-means were determined. Changes from baseline were compared between treatment-groups in the mixed model with baseline values entered as covariate. Since there were only 2 groups in the main effect and no interaction effect, no post hoc procedures were employed. In additional analysis the influence of clinically important differences between the treatment groups at baseline was considered by adjusting for them as covariates in an additional model. All P values were calculated from 2-tailed tests of statistical significance and a 5% significance level was maintained throughout. The effect of treatment on categorical variables was tested using the procedures of Mantel and Haenzel (SAS v8.01, SAS Institute).

[5] = 15 days
Method: One sample of the solution was stored in the dark at 4° C. and 21° C. in the dark and a third sample was stored at 21° C. in daylight.
The Ultraviolet-visible spectrum of the formulation was initially measured at day 0 and then at day 15. 20 μl aliquots of sample solutions were taken at day 15. For each aliquot 960 μl of 50 mM TRIS buffer and 20 μl aliquot of Copper Nitrate standard (100 mM—Orion Research Inc) were added.

[6] = 0.9% saline, 0.67-670 mg/ml, four months at 4° C.
Method: The concentrations of the stock formulations were:0.67 mg/ml, 6.7 mg/ml, 67 mg/ml, and 670 mg/ml. The formulation was then administered to the rats in doses of 0.1 mg/kg, 1 mg/kg, 10 mg/kg, and 100 mg/kg to the animals respectively.

[7] = test system: STZ-treated and non-STZ-treated rats; settings: for Cu content of heart tissue / Fe content of heart tissue: mean ± SEM
Method: Methods were carried out as follows. Spectrophotometric analysis was conducted as described in Example 2. Cu, Fe and Zn in tissue digests were determined at Hill Laboratories (Hamilton, New Zealand) using either a PE Sciex Elan-6000 or PE Sciex Elan-6100 DRC ICP-MS.
Sample pre-treatment was carried out as follows. Heart:Following removal from the animal, the heart was cleaned of excess tissue, rinsed in buffer to remove excess blood, blotted dry and a wet ventricular weight recorded. Using titanium instruments a segment of left ventricular muscle was dissected and placed in a pre-weighed 5.0 ml polystyrene tube. The sample was freeze-dried overnight to constant weight before 0.45 ml of 69% Aristar grade HNO3 was added. The sample tube was heated in a water bath at 65° C. for 60 minutes. The sample was brought to 4.5 ml with Milli-Q H2O. The resulting solution was diluted 2:1 in order to reduce the HNO3 concentration below the maximum permitted for ICP-MS analysis.

[8] = test system: male humans with T2DM and matched non-diabetic controls
Excerpt: Methods were as follows. Human studies were approved by institutional ethics and regulatory committees. We measured urinary metal excretion in human males with T2DM or matched non-diabetic controls, baseline information on which is shown in Table 9, in a randomized, double blind, placebo-controlled trial. Males with uncomplicated T2DM (Table 9) underwent 12-d elemental balance studies in a fully residential metabolic unit. All foods and beverages were provided. Total daily intake (method of double diets) and excretion (urinary and fecal) of trace elements (Ca, Mg, Zn, Fe, Cu, Mn, Mo, Cr and Se) were determined (ICP MS).

[9] = test system: STZ-treated and normal rats; assay: Isolated working heart function after 7 weeks oral trientine
Male Wistar rats = assay: Effects of streptozotocin (STZ) treatment in rats; format: in vivo, rat
Excerpt: Male Wistar rats (n=28, 303±2.9 g) were divided randomly into STZ-treated and non-treated groups. […] Non-treated animals received an equivalent volume of saline. […] Blood glucose and body weight were measure at day 3 following STZ/saline injection and then weekly throughout the study.

[10] = STZ-treated and non-STZ-treated rats
[11] = STZ-treated rats, oral trientine 7 weeks
[12] = STZ-treated animals n = 14, mean ± SEM

Question: For `NCCNCCNCCN` [trientine dihydrochloride], which “Cu excretion in urine versus saline at lowest dose” value ([1]; 0.1 mg.kg^−1 parenteral, rats) is on record?
Answer: significantly increased

Question: What about the “Effect on fecal Cu output” value ([2]; normal humans and those with T2DM, dihydrochloride) of the same molecule?
Answer: does not result in increased excretion of copper in the feces

Question: With `Oc1c(I)cc(Cl)c2cccnc12` [clioquinol] as the molecule, how does the “Brain Aβ / amyloid deposition” value (Tg2576 transgenic mice) read?
Answer: decrease in brain Aβ deposition

Question: With `NCCNCCNCCN` [trientine] as the molecule, how does the “Urine excretion versus saline” value ([1]; 100 mg.kg^−1 dose, non-STZ-treated rats) read?
Answer: increased urine excretion

Question: What about the “Total copper excreted over the entire duration of the experiment versus saline controls” value [1, 10] of the same molecule?
Answer: significantly increased

Question: And the “Urinary iron excretion versus saline” value [1, 10]?
Answer: not increased

Question: And the “Serum Cu” value ([1]; STZ-treated rats, n = 6)?
Answer: 7.56 ± 0.06 μg · μl^−1 × 10^−4

Question: And the “Serum Fe” value ([1]; STZ-treated rats, n = 6)?
Answer: 35.7 ± 7.98 μg · μl^−1 × 10^−4

Question: What about the “Urinary Cu excretion versus equivalent volume of saline” value ([1]; all doses 0.1, 1.0, 10, 100 mg.kg^−1 i.v., STZ-treated and non-STZ-treated rats) of the same molecule?
Answer: excreted more Cu

Question: What about the “Urinary copper excretion per gram of bodyweight, STZ-treated versus non-STZ-treated” value ([1]; following trientine administration) of the same molecule?
Answer: greater per gram of bodyweight in STZ-treated

Question: And the “Serum Cu” value ([1]; non-STZ-treated rats, n = 4)?
Answer: 7.11 ± 0.41 μg · μl^−1 × 10^−4

Question: And the “Serum Fe” value ([1]; non-STZ-treated rats, n = 4)?
Answer: 33.6 ± 1.62 μg · μl^−1 × 10^−4

Question: What about the “Maximum decrease of mean arterial pressure (MAP)” value [3] of the same molecule?
Answer: 19±4 mmHg and 19+/−4 mmHg

Question: And the “Myocardium of trientine-treated non-STZ-treated rats” value [4]?
Answer: appeared normal

Question: And the “Myocardial (LV) histology in STZ-treated rats” value ([4]; 7 weeks oral trientine)?
Answer: improved; also recorded: substantive recovery of LV structure

Question: What about the “Adverse events during 6 months' therapy” value (humans with T2DM; 600 mg twice-daily oral) of the same molecule?
Answer: No significant trientine-related adverse events

Question: What about the “Δ diastolic blood pressure” value (humans with T2DM; 6 months − baseline, mean) of the same molecule?
Answer: −3.9 mmHg

Question: What about the “Δ systolic blood pressure” value (humans with T2DM; 6 months − baseline, mean) of the same molecule?
Answer: −3.5 mmHg

Question: What about the Δ urinary copper (humans with T2DM; 6 months − baseline, mean) of the same molecule?
Answer: -0.83 µmol/L

Question: And the “Δ left ventricular mass/body surface area” value (humans with T2DM; 6 months − baseline, mean, P<0.01 vs. placebo)?
Answer: −5.56** g · m^−2

Question: And the “Decrease of mean LV mass” value (humans with T2DM; diabetics, 600 mg twice-daily oral, 6 months)?
Answer: 5%

Question: And the “Change in ability to chelate copper on storage” value ([5]; 100 mM in deionized water, 4° C. dark, 21° C. dark, 21° C. daylight)?
Answer: no detectable change

Question: What about the “Effect of room light on copper chelation” value ([5]; 100 mM solution, 21° C., daylight) of the same molecule?
Answer: no detectable detrimental effect

Question: And the “Mean CU Losses, fecal, Post-Tment” value ([2]; control)?
Answer: 2.045 mg/day

Question: And the “Mean CU Losses, fecal, Post-Tment” value ([2]; diabetic)?
Answer: 1.965 mg/day

Question: What about the “Effect on fecal outputs of Zn, Fe, Ca, Mg, Mn, Cr, Mb or Se” value ([2]; oral 2.4 g once daily) of the same molecule?
Answer: Neither diabetes nor trientine had measurable effects

Question: And the “Brain Aβ / amyloid deposition” value (Tg2576 transgenic mice)?
Answer: did not inhibit amyloid deposition

Question: And the “Stability of stock solutions on storage (copper chelation efficacy)” value [6]?
Answer: remains active as a copper chelator

Question: And the “Cu content of heart tissue” value ([7]; STZ-treated rats)?
Answer: 24.7 ± 1.5 μg · g^−1 dry tissue

Question: And the “Fe content of heart tissue” value ([7]; STZ-treated rats)?
Answer: 186 ± 46 μg · g^−1 dry tissue

Question: And the “Effect on copper content of cardiac tissue” value ([7]; acute i.v. increasing doses, normal and STZ-treated rats)?
Answer: no significant effect

Question: And the “Cu content of heart tissue” value ([7]; non-STZ-treated rats)?
Answer: 27.1 ± 1.0 μg · g^−1 dry tissue

Question: What about the “Fe content of heart tissue” value ([7]; non-STZ-treated rats) of the same molecule?
Answer: 235 ± 39 μg · g^−1 dry tissue

Question: What about the “Mean trientine-evoked urinary Cu-excretion” value ([8]; T2DM, oral 2.4 g once-daily) of the same molecule?
Answer: 5.8 µmol/day

Question: And the “Urinary Cu, diabetic and control groups” value ([8]; day 7, oral 2.4 g)?
Answer: increased urinary Cu in both groups

Question: What about the “Mean trientine-evoked urinary Cu-excretion” value ([8]; non-diabetic controls, oral 2.4 g once-daily) of the same molecule?
Answer: 4.1 µmol/day

Question: And the “Increase of trientine-evoked urinary Cu-excretion in T2DM compared to non-diabetic controls” value ([8]; oral 2.4 g once-daily)?
Answer: 40%

Question: And the “Trientine-evoked urinary Fe excretion” value ([8]; oral 2.4 g once-daily)?
Answer: no corresponding increase

Question: What about the “Urinary Cu excretion, trientine-treated T2DM versus trientine-treated non-diabetic controls” value ([8]; single 2.4-g oral dose, day 7, P<0.05) of the same molecule?
Answer: significantly greater

Question: What about the “Cardiac function versus untreated STZ-treated controls” value [9, 11] of the same molecule?
Answer: improved cardiac function

Question: What about the “Cardiac output with increasing pre-load, after-load constant” value [9, 11] of the same molecule?
Answer: restored to Sham values

Question: What about the “Trientine treated STZ-treated hearts still functioning when 50% of untreated STZ-treated hearts had failed” value ([9]; increasing after-load, constant pre-load) of the same molecule?
Answer: about 90%

Question: What about the “Effect on cardiac performance of normal animals” value ([9]; non-STZ-treated rats, oral trientine 7 weeks) of the same molecule?
Answer: no adverse effects on cardiac performance

Question: And the “Blood glucose profile versus untreated comparison group” value ([9]; oral trientine in drinking water weeks 7-13)?
Answer: made no difference

Question: What about the “heart:body weight ratio in STZ-treated animals” value ([9]; oral trientine weeks 7-13 versus untreated STZ) of the same molecule?
Answer: small but significant improvement

Question: Which results are given for `CN(N=O)C(=O)N[C@H]1C(O)O[C@H](CO)[C@@H](O)[C@@H]1O` (mixture of isomers) [STZ, streptozotocin]?
Answer: Daily food consumption (Male Wistar rats; STZ 55 mg.kg^−1 i.v., n = 14, mean ± SEM): *58 ± 1 g; Heart rate (HR), control period prior to infusion (Male Wistar rats; STZ-treated anaesthetized rats): 287±11 bpm; Heart weight/body weight (Male Wistar rats; [12]): *2.93 ± 0.05 mg · g^−1; Wet heart weight (Male Wistar rats; [12]): *0.78 ± 0.02 g

Question: Which “Stability of stock solutions on storage (copper chelation efficacy)” value ([6]; hydrochloride) does the source give for `NCCNCCNCCN` [trientine hydrochloride] here?
Answer: without appreciable deterioration in efficacy
